Test results from patent publication US9855538B2, “Ultrasonic method and apparatus for producing particles having a controlled size distribution” (The Board of Trustees of the University of Illinois, priority 2013, dated 2018).

Key:
[1] = Particle size and morphology of drug particles from antisolvent sonocrystallization (optical microscope, SEM, dynamic light scattering); assay type: physicochemical
Description: The application of ultrasound to the induction of nucleation of drug crystals is presented in the following examples. The apparatus shown in FIG. 1 was employed for all of the experiments, using a titanium-aluminum alloy flow-through ultrasonic horn (Sonics & Materials VCX750) having a resonance frequency of 20 kHz, a 1 cm^2 tip and an outlet diameter of 4 mm. Horn intensities were calibrated by calorimetry with water. A crystallization tube having an outer diameter (OD) of 13 mm was used in each experiment. Each has different solubility characteristics and consequently its own solvent/antisolvent system. Fine particles of several drug materials, including aspirin (acetylsalicylic acid), acetaminophen (also called paracetamol, the active ingredient in Tylenol), and folic acid (vitamin B9), were prepared by antisolvent sonocrystallization.
Particles were imaged using a Canon PC1015 digital camera attached to a Zeiss Axioskop optical/fluorescence microscope with polarization analyzer or with a Hitachi 4700 SEM. Particle size distributions were measured by dynamic light scattering when possible.

[2] = Solubility of the drug in solvent / antisolvent; assay type: physicochemical
Description: The solute employed in the process may be any material for which a suitable solvent and antisolvent may be found. The suitability of a solvent/antisolvent system may be evaluated by comparing the solubility of the solute in the solvent with the solubility of the solute in the antisolvent. For example, the solute may have a first solubility in the solvent and a second solubility in the antisolvent, where a ratio of the first solubility to the second solubility is at least about 10:1, or at least about 100:1. A higher ratio may permit a higher particle yield to be achieved for a given concentration of solute in the solvent. Accordingly, the ratio may also be at least about 200:1 or at least about 400:1, but is typically no higher than about 800:1. As would be recognized by one of ordinary skill in the art, the solubility of solute in a given solvent may be represented in terms of milligrams of solute per milliliter of the solvent (mg/mL), and may be determined by HPLC or gravimetric analysis.

CC(=O)Nc1ccc(O)cc1 [acetaminophen]
Resultant particle morphology ([1]; antisolvent sonocrystallization, 20 kHz, 15 W, solvent/antisolvent per experiment (Tables 1, 2)): platelike | crystal length in the largest dimension ([1]; ethanol solution, hexanes as antisolvent, FIGS. 6A and 6B): a few

Nc1nc2ncc(CNc3ccc(C(=O)N[C@@H](CCC(=O)O)C(=O)O)cc3)nc2c(=O)[nH]1 [Folic acid, folic acid]
crystal diameter ([1]; 20% aqueous ammonium hydroxide solvent, acetone antisolvent, by SEM (FIGS. 8A-8B)): about 100 nm | particle morphology (optical microscope) ([1]; saturated sodium bicarbonate solution, H2SO4 antisolvent, FIGS. 7C-7D): large needles | particle size (optical microscope) ([1]; saturated sodium bicarbonate solution, HCl antisolvent, FIGS. 7A-7B): too small to resolve optically | solubility in acetone ([2]; acetone): negligible | solubility in base ([2]; base (as the folate ion)): dissolves readily | solubility in water ([2]; neutral to moderately acidic water): very nearly insoluble | solubility in water ([2]; very low pH): quite soluble

CC(=O)Oc1ccccc1C(=O)O [aspirin, acetylsalicylic acid]
concentration of saturated ethanol solution ([2]; ethanol): about 400 mg/mL
